{
  "source": "patent US6350478B1",
  "about": "“Artemisia judaica fractionation method” (Phytotech Limited, priority 1996, dated 2002)",
  "key": {"[1]": {"system": "androst-4-ene 3, 17-dione metabolism", "assay": "Steroid metabolism (androst-4-ene 3, 17-dione metabolism) of liver cells", "format": "cell-based, rat", "conditions": "STZ diabetic rats; Extract 1 200 μg/ml, Extract 2 10-120 μg/ml, Extract 3 1 ng/ml, Insulin 1 ng/ml, Inositol 100-100 μg/ml", "description": "Isolated hepatocytes were prepared from control animals by a modification of the double perfusior technique of Seglen (1973) involving […] animal with halothane/nitrous oxide and inserting a cannula into the hepatic portal vein. The liver was subsequently perfused first with a calcium-free buffer and then with collagenase solution. The isolated cells were freed from the connective tissue by gentle combing. Hepatocytes were suspended in Ham's F-10 nutrient solution, Williams' medium E or Krebs-Henseleit medium depending on the assay to be performed. The effects of Extract 1 on steroid metabolism in liver cells was also studied. The animals were killed by CO2 asphyxiation and the liver quickly exised and placed in ice-cold buffer (0.1M phosphate buffer, pH 7.4). The liver was homogenised using a Potter-Elvehjem homogeniser with a teflon pestle and microsomes were prepared by differential centrifugation. The microsomes were resuspended by gentle homogenisation in the same buffer. The protein content was measured by the method of Lowry using bovine serum albumin as standard and the microsomes were diluted by 10 mg protein/ml. The diluted microsomes were assayed for aniline 4-hydroxylase activity and aminopyrine N-demethylase activity (results not shown) and for androst-4-ene 3, 17-dione metabolism using published methodology. […]"}, "[2]": {"system": "Glycogen phosphorylase a", "assay": "Glycogen phosphorylase a activity in isolated rat hepatocytes (insulin-like activity)", "format": "cell-based", "conditions": "for Activity of liver cells: Glycogen Phosphorylase a activity: isolated rat hepatocytes, Extract 1 200 μg/ml, Extract 3 1 ng/ml, Insulin 1 ng/ml, Inositol 100-100 μg/ml", "description": "(§1) Isolated hepatocytes were prepared from control animals by a modification of the double perfusior technique of Seglen (1973) involving anaesthetising he animal with halothane/nitrous oxide and inserting a cannula into the hepatic portal vein. The liver was subsequently perfused first with a calcium-free buffer and then with collagenase solution. The isolated cells were freed from the connective tissue by gentle combing. Hepatocytes were suspended in Ham's F-10 nutrient solution, Williams' medium E or Krebs-Henseleit medium depending on the assay to be performed.\n(§2) Glycogen phosphorylase a activity, as an index of insulin-like or glucagon antagonist activity can be measured using falling logarithmic concentrations of analyte in the presence or absence of insulin or glucagon.\nIsolated hepatocytes, suspended in Krebs-Henseleit solution at a concentration of 10^6 cells/ml, were treated with Artemisia extract at a concentration of […] (final concentration) in the presence or absence of insulin (10^−7M) or glucagon ([…]) for 2 minutes in a shaking water bath at 37° C. under constant oxygenation with 100% oxygen. The cells were subsequently centrifuged for 30s in a Beckman Microfuge and the pellet resuspended in MOPS buffer (pH 6.5) containing sodium fluoride (12.6 g/l), EDTA (1.85 g/l) and a dithiothreitol (0.31 g/l) at 10^6 cells/ml. The suspended cells were homogenised in a Potter-Elvehjem homogeniser and the homogenate centrifuged at 300×g in a Damon-IEC refrigerated centrifuge at 4° C. for 10 minutes. The resultant supernatant was used to assay for glycogen phosphorylase a activity as described by Preiksatis & Kunos (1979). This technique involves the measurement of [^14C]glycose-1-phosphate to glycogen conversion in the presence of caffeine to inhibit glycogen phosphorylase b activity.\nEach fraction was carefully evaporated to dryness and weighed in a tared vessel. The dried samples were redissolved in methanol (100 μl) and (100 μl of H2O for the void volume) and subjected to chromatography. […]"}, "[3]": {"conditions": "dietary supplementation; The Lancet May 20, 1989; cited from earlier work"}, "[4]": {"system": "STZ Diabetic Rats", "assay": "Antidiabetic activity in STZ diabetic rats", "format": "in vivo, rat", "conditions": "Extract 2 10-120 μg/ml po", "description": "This extract, referred to as Extract 1 or Fraction 1, was tested in rats rendered diabetic by administration of Streptotozocin (STZ), and in in vitro tests for insulin-like activity. Toxicity was tested in a bacterial (Ames) mutagenicity test.\nUrine was tested for the presence of ketones and glucose using Keto-Diabur Test 5000 sticks (Boehringer Mannheim, Lewes, UK). Glucose was assayed by the glucose oxidase method as described by Trinder (1969) using a kit supplied by the Sigma Chemical Co Ltd, Pool, UK)\nThe animals were monitored for 7 day periods before being made diabetic, after induction of diabetes by administration of STZ and during Artemisia treatment, so that each animal acted as its own control. Food intake rose after induction of diabetes and fell again following treatment with Artemisia."}, "[5]": {"system": "glucagon response", "assay": "Glycogen phosphorylase a activity in isolated hepatocytes in the presence of glucagon (glucagon antagonist activity)", "format": "cell-based, rat", "conditions": "Extract 1 200 μg/ml, Extract 3 1 ng/ml, Insulin 1 ng/ml", "description": "as §1, §2\nIsolated hepatocytes, suspended in Krebs-Henseleit solution at a concentration of 10^6 cells/ml, were treated with Artemisia extract at a concentration of […] (final concentration) in the presence or absence of insulin (10^−7M) or glucagon ([…]) for 2 minutes in a shaking water bath at 37° C. under constant oxygenation with 100% oxygen. The cells were subsequently centrifuged for 30s in a Beckman Microfuge and the pellet resuspended in MOPS buffer (pH 6.5) containing sodium fluoride (12.6 g/l), EDTA (1.85 g/l) and a dithiothreitol (0.31 g/l) at 10^6 cells/ml. […]"}, "[6]": {"system": "Escherichia coli and Salmonella typhimurium", "assay": "Ames bacterial mutagenicity test, liver fraction supplemented", "format": "cell-based", "conditions": "Ames test with liver fraction", "from_the_text": "Escherichia coli and Salmonella typhimurium were used in the Ames test (B. N. Ames, J. McCann, E. Yamasaki—Mutation Res. 31 (1975) 347). The bacteria used carry a mutation which makes them dependent upon the presence of a specific nutrient medium for growth. If the test substance added to the growth medium of a plate of such bacteria is mutagenic, then a small proportion of the mutations it induces will cause the nutrient dependency mutation to revert, so that the bacteria will synthesise the nutrient and grow even in its absence. Observing whether colonies grow on nutrient deficient plates in the presence and absence of the test substance will thus reveal whether the substance is mutagenic and can give a measure of the mutagenicity of the substance."}, "[7]": {"conditions": "Extract 1 200 μg/ml po, Extract 3 1 ng/ml po, Insulin 1 ng/ml sc"}},
  "data": [
    {"compound": "O[C@H]1[C@H](O)[C@@H](O)[C@H](O)[C@@H](O)[C@H]1O", "note": "[Inositol]", "values": [
      {"measurement": "Activity of liver cells: Steroid metabolism", "setting": "[1]", "result": "negative"},
      {"measurement": "Activity of liver cells: Glycogen Phosphorylase a activity", "setting": "[2]", "result": "negative"},
      {"measurement": "activity in the in vitro liver cell system", "setting": "[2]; levels of up to 1 mg/ml", "result": "inactive"},
      {"measurement": "improvement of nerve function in the management of complications of diabetes mellitus", "setting": "[3]", "result": "no evidence"}
    ]},
    {"compound": "Insulin", "values": [
      {"measurement": "Excessive food intake", "setting": "[4]; Extract 1 200 μg/ml po (drinking water), Extract 3 1 ng/ml po, Insulin 1 ng/ml sc", "result": "reversed"},
      {"measurement": "Diuresis", "setting": "[4]; Extract 1 200 μg/ml po", "result": "reduced"},
      {"measurement": "Glucosuria", "setting": "[4]; [7]", "result": "reduced"},
      {"measurement": "Ketonuria", "setting": "[4]; [7]", "result": "reduced"},
      {"measurement": "Weight gain", "setting": "[4]; [7]", "result": "normalised"},
      {"measurement": "Activity of liver cells: Steroid metabolism", "setting": "[1]", "result": "restored *"},
      {"measurement": "Activity of liver cells: Glycogen Phosphorylase a activity", "setting": "[2]", "result": "decreased ***"},
      {"measurement": "Activity of liver cells: Effect on glucagon response", "setting": "[5]", "result": "reversed ***"},
      {"measurement": "Bacterial mutagenicity", "setting": "[6]", "result": "negative"}
    ]}
  ]
}
